The target in one series is T1, VvSTO6 (Vitis vinifera, UniProt A0A0S3QPS9).
T1 construct: gene CYP71BE10
T1 sequence (A0A0S3QPS9 1-505): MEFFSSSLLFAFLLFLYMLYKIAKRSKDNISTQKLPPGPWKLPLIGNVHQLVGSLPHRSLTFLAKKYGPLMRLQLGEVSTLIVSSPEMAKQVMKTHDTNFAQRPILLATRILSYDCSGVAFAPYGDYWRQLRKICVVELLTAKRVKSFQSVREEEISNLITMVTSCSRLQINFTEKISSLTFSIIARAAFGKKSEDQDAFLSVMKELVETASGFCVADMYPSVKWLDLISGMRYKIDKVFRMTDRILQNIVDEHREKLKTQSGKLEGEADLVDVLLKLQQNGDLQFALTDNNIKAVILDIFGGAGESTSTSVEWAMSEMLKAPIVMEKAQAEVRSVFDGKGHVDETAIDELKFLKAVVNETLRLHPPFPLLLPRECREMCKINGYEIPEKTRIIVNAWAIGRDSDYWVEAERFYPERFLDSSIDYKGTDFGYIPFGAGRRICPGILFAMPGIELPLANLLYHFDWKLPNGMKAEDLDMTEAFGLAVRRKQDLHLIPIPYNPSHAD
Kind of series: GC-MS of reaction products, recombinant yeast microsomes. It counts as biochemical. The settings on record: 100 μM substrate, 1 mM NADPH, 50 mM Tris-HCl pH 7.5, 30 °C, 2 h; unidentified products presumed mono-hydroxylated sesquiterpenes.

For another series, the target named is T2, VvSTO4 (Vitis vinifera, UniProt A0A0S3QPU4).
T2 construct: gene CYP71BE1
T2 sequence (A0A0S3QPU4 1-504): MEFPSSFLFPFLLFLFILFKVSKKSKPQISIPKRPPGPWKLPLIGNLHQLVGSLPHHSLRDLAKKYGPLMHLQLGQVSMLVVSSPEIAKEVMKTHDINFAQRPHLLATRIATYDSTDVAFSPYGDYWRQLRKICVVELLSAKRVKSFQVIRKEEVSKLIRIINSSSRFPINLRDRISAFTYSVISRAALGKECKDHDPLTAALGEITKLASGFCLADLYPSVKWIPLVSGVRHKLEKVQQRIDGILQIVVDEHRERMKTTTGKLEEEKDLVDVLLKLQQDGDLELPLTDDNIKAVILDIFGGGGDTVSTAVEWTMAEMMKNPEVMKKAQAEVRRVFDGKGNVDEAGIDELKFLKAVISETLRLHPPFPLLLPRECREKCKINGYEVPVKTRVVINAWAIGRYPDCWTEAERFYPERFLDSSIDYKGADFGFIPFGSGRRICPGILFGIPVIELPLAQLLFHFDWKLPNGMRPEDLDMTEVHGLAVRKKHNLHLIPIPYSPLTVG
Described as above. The class given is biochemical. The settings on record: 100 μM substrate, 1 mM NADPH, 50 mM Tris-HCl pH 7.5, 30 °C, 2 h; unidentified products presumed mono-hydroxylated sesquiterpenes.

Substrate in series [1]: C=C(C)[C@@H]1CCC2=CCC[C@@H](C)[C@]2(C)C1
The series is described as follows: cells, lysate or membranes. The settings on record: 1 mM NADPH, 50 mM Tris-HCl pH 7.5, 30 °C, 30 min, 2–100 μM substrate.

Substrate in series [2]: C=C(C)[C@@H]1CC[C@H](C)C2=C(C1)[C@@H](C)CC2
The series is described as follows: GC-MS (SBSE) of (−)-rotundone formation, Hanes-Woolf plot, recombinant yeast microsomes. The note with it: 1 mM NADPH, 50 mM Tris-HCl pH 7.5, 30 °C, 30 min, 2.6–130 μM substrate. It counts as biochemical, Vitis vinifera.

Take `C=C(C)[C@@H]1CC[C@H](C)C2=C(C1)[C@@H](C)CC2` [α-guaiene]: the “GC-MS of reaction products, recombinant yeast microsomes” value is “VvSTO4 and VvSTO6 produced several reaction products with α-guaiene as a substrate” at VvSTO6; “VvSTO4 and VvSTO6 produced several reaction products with α-guaiene as a substrate” on VvSTO4.

B1: VvSTO2 (Vitis vinifera) (protein)
chain: MELQFSFFPILCTFLLFIYLLKRLGKPSRTNHPAPKLPPGPWKLPIIGNMHQLVGSLPHRSLRSLAKKHGPLMHLQLGEVSAIVVSSREMAKEVMKTHDIIFSQRPCILAASIVSYDCTDIAFAPYGGYWRQIRKISVLELLSAKRVQSFRSVREEEVLNLVRSVSLQEGVLINLTKSIFSLTFSIISRTAFGKKCKDQEAFSVTLDKFADSAGGFTIADVFPSIKLLHVVSGMRRKLEKVHKKLDRILGNIINEHKARSAAKETCEAEVDDDLVDVLLKVQKQGDLEFPLTMDNIKAVLLDLFVAGTETSSTAVEWAMAEMLKNPRVMAKAQAEVRDIFSRKGNADETVVRELKFLKLVIKETLRLHPPVPLLIPRESRERCAINGYEIPVKTRVIINAWAIARDPKYWTDAESFNPERFLDSSIDYQGTNFEYIPFGAGRRMCPGILFGMANVELALAQLLYHFDWKLPNGARHEELDMTEGFRTSTKRKQDLYLIPITYRPLPVE
As usually defined, the Km is the substrate concentration at which the rate is half of its maximum. For the molecule B1, the results for the Km in series [1] and in series [2] were 35 µM and 30 µM, respectively.
